Molecules are shown by their SMILES.

The source of these data is US6780875B2, “Quinoline-4-carboxamide derivatives as NK-3 and NK-2 receptor antagonists” (SmithKline Beecham S.p.A., priority 1998, dated 2004).

The term melting point denotes the temperature, or range, at which the solid turns liquid. Regarding `C[C@H](NC(=O)c1c(CN2CCN(CC(=O)O)CC2)c(-c2ccccc2)nc2ccccc12)C1CCCCC1` [Example 92, {4-[4-((S)-1-Cyclohexyl-ethylcarbamoyl)-2-phenyl-quinolin-3-ylmethyl]-piperazin-1-yl}-acetic acid], the melting point is 188 to 195 °C.

`CC[C@H](NC(=O)c1c(CN2CCC(N3CCCCC3)CC2)c(-c2ccccc2)nc2cc(O)ccc12)c1ccccc1` [Example 95, 3-[1,4′]Bipiperidinyl-1′-ylmethyl-7-hydroxy-2-phenyl-quinoline-4-carboxylic acid ((S)-1-phenyl-propyl)-amide] displayed a melting point of 158 to 162 °C.
